Reference: article PMC10746112, “Synthesis and Pro-Apoptotic Effects of Nitrovinylanthracenes and Related Compounds in Chronic Lymphocytic Leukaemia (CLL) and Burkitt’s Lymphoma (BL)” (Molecules, 2023)
pIC50: −log10 of the molar value. “And” between values parts separate entries of the source, which are not always exact repeats. Equal values may be shown once. Read-outs that look alike come from different tables or passages of the source.

Legend:
[1] = test system: DG-75 Burkitt’s lymphoma cell line; details: human, 48 h, 10 µM
[2] = test system: DG-75 Burkitt’s lymphoma cell line; test: alamarBlue cell viability assay; details: for viability at 1 µM / viability at 10 µM: Homo sapiens, DG-75, 48 h; for % Viable Cells Remaining DG-75: 48 h
[3] = test system: MUTU-I Burkitt’s lymphoma cell line; details: human, 24 h, 10 µM
[4] = test system: MUTU-I Burkitt’s lymphoma cell line; test: alamarBlue cell viability assay; details: 24 h; for viability at 1 µM / viability at 10 µM: MUTU-I
[5] = test system: MUTU-I Burkitt’s lymphoma cell line; details: cited from earlier work; for pIC50: read-out: IC50 MUTU-I, previous work
[6] = test system: DG-75 Burkitt’s lymphoma cell line; details: read-out: IC50 DG-75; previous work; cited from earlier work
HG-3 CLL cell line = test: alamarBlue cell viability assay; details: 24 h; for viability at 10 µM: read-out: % Viability HG-3, 10 µM, 24 h
PGA-1 CLL cell line = test: alamarBlue cell viability assay; details: 24 h; for % Viability PGA-1: 10 µM
[7] = read-out: % Viable Cells Remaining DG-75, 1 µM, 48 h
[8] = read-out: % Viable Cells Remaining DG-75, 10 µM, 48 h
[9] = read-out: % Viable Cells Remaining MUTU-1, 1 µM, 24 h
[10] = read-out: % Viable Cells Remaining MUTU-1, 10 µM, 24 h
[11] = CLL cell, read-out: % Viability PGA-1, 10 µM, 24 h
[12] = read-out: % Viable Cells Remaining MUTU-1
[13] = read-out: % Viable Cells Remaining DG-75

SMILES	viability at 1 µM [2, 7]	viability at 10 µM [2, 8]	viability at 1 µM [4, 9]	viability at 10 µM [4, 10]	further results
c1ccc2c(-c3c[nH]nn3)c3ccccc3cc2c1 [Compound 30a, 4-(anthracen-9-yl)-1H-1,2,3-triazole]	104%	> 90%	94.9%	> 90%	% Viable Cells Remaining DG-75 [1]: 94.86%; % Viable Cells Remaining MUTU-1 [3]: 94.5%
CNCCCC12CCC(c3ccccc31)c1ccccc12 [Maprotiline, maprotiline, reference compound]	102%	65%	93.1%	72%	–
N/N=C/c1c2ccccc2cc2ccccc12 [Compound 32a]	104%	102%	97.5%	95.5%	–
O=C(c1c2ccccc2cc2ccccc12)N1CCCCCC1 [Compound 33c, Anthracen-9-yl(Azepan-1-yl)Methanone]	69.6%	71.6%	86.8%	77.4%	melting point: 134 to 137 °C; % Viable Cells Remaining MUTU-1 [3]: 77.4%
O=[N+]([O-])/C(=C/c1ccc(Cl)cc1)Cc1ccc(Cl)cc1 [Compound 10c, reference compound]	–	–	–	–	pIC50 [5]: 5.53; pIC50 [6]: 5.19
O=[N+]([O-])/C=C/c1c2ccccc2c(Cl)c2ccccc12 [Compound 19d]	75.1%	57.1%	70.8%	7.6%	viability at 10 µM (HG-3 CLL cell line; CLL cell): 97%; viability at 10 µM (PGA-1 CLL cell line; [11]): 51.8%; % Viable Cells Remaining MUTU-1 [3]: 7.61%
C/C(=C\c1c2ccccc2cc2ccccc12)[N+](=O)[O-] [Compound 19b, (E)-9-(2-nitroprop-1-en-1-yl)anthracene]	102%	89.3%	99.8%	88.2%	viability at 10 µM (HG-3 CLL cell line; CLL cell): 82%; viability at 10 µM (PGA-1 CLL cell line; [11]): 81%
N#CCc1c2ccccc2cc2ccccc12 [Compound 28, 2-(anthracen-9-yl)acetonitrile]	93.8%	85.2%	95.2%	88.8%	–
c1ccc2c(CN3CCCC3)c3ccccc3cc2c1 [Compound 29b]	93.2%	97.2%	108%	106%	–
CC/C(=C\c1c2ccccc2cc2ccccc12)[N+](=O)[O-] [Compound 19c]	83.8%	92.3%	88.6%	78%	viability at 10 µM (HG-3 CLL cell line; CLL cell): 72%; viability at 10 µM (PGA-1 CLL cell line; [11]): 66%
CCN(CC)C(=O)c1c2ccccc2cc2ccccc12 [Compound 33a]	90.1%	90.5%	105%	103%	–
N#C/C=C/c1c2ccccc2cc2ccccc12 [Compound 23c]	84.2%	82%	88.1%	86.9%	–
CN(C)C(=O)c1c2ccccc2cc2ccccc12 [Compound 33b]	96.2%	75%	91.4%	90.1%	melting point: 150 to 152 °C; % Viable Cells Remaining MUTU-1 [3]: 90.1%
O/N=C/Cc1c2ccccc2cc2ccccc12 [Compound 32e]	102%	93%	103%	94.9%	–
N/N=C/c1c2ccccc2c(Cl)c2ccccc12 [Compound 32b]	94.8%	100%	105%	82.5%	–
O=[N+]([O-])/C=C/c1cc2ccccc2c2ccccc12 [Compound 21, (E)-9-(2-Nitrovinyl)phenanthrene]	99.5%	60%	–	–	viability at 10 µM (HG-3 CLL cell line; CLL cell): 29%; viability at 10 µM (PGA-1 CLL cell line; [11]): 11.8%; % Viable Cells Remaining DG-75 ([2]; 10 µM): 62.2%; viability at 1 µM [4, 12]: 73.6%; viability at 10 µM [4, 12]: 1.68%
ClCc1c2ccccc2cc2ccccc12 [Compound 27, 9-(chloromethyl)anthracene]	79%	85.5%	102%	93.8%	% Viable Cells Remaining MUTU-1 [3]: 93.8%
O/N=C/c1c2ccccc2cc2ccccc12 [Compound 32c]	92.5%	101%	99.2%	92.7%	–

SMILES	viability at 1 µM [2, 7]	viability at 10 µM [2, 8]	viability at 1 µM [4, 9]	viability at 10 µM [4, 10]	further results
COc1ccc2c(c1)OC(c1ccccc1)C([N+](=O)[O-])=C2 (centres unmarked) [Compound 10b, reference compound]	–	–	–	–	pIC50 [5]: 6.33; pIC50 [6]: 5.72
C/C(=C\c1ccc(F)cc1)[N+](=O)[O-] [Compound 11c]	–	–	–	–	viability at 10 µM (HG-3 CLL cell line; CLL cell): 8.76%; % Viable Cells Remaining MUTU-1 24 h 10 µM ([5]; nitrostyrenes, 10 µM, 24 h): 19.06%; viability at 10 µM (PGA-1 CLL cell line; [11]): 3.7%
OCc1c2ccccc2cc2ccccc12 [Compound 26, anthracen-9-ylmethanol]	102%	93%	106%	94.9%	–
N#CC(C#N)=Cc1c2ccccc2c(Cl)c2ccccc12 [Compound 23b, 2-((10-Chloroanthracen-9-yl)Methylene)Malononitrile]	–	–	–	–	melting point: 196 to 198 °C; % Viability PGA-1 (PGA-1 CLL cell line): > 50%; % Viable Cells Remaining DG-75 ([2]; 1 µM): 85.59%; % Viable Cells Remaining DG-75 ([2]; 10 µM): ~ 55% and 52.84%; % Viable Cells Remaining MUTU-1 ([4]; 1 µM): 92.59%; % Viable Cells Remaining MUTU-1 ([4]; 10 µM): ~ 20% and 16.78%
N#CC(C#N)=Cc1c2ccccc2cc2ccccc12 [Compound 23a]	–	–	–	–	viability at 10 µM (PGA-1 CLL cell line; CLL cell, read-out: % Viability PGA-1): > 50%; viability at 1 µM [2, 13]: 104%; viability at 10 µM [2, 13]: 98.1%; viability at 1 µM [4, 12]: 91.9%; viability at 10 µM [4, 12]: 65.3%
O=C(c1c2ccccc2cc2ccccc12)N1CCCC1 [Compound 33d]	69.4%	67.1%	91.6%	95.6%	melting point: 149 to 151 °C; % Viable Cells Remaining MUTU-1 [3]: 95.6%
O=[N+]([O-])/C=C/c1c2cccc(Cl)c2cc2c(Cl)cccc12 [Compound 19k, (E)-1,8-Dichloro-10-(2-Nitrovinyl)Anthracene]	88.7%	0.15%	71%	-0.18%	–
CC/C(=C\c1cc(Br)ccc1OC)[N+](=O)[O-] [Compound 10a, (E)-4-bromo-1-methoxy-2-(2-nitrobut-1-en-1-yl)benzene, reference compound]	–	–	–	–	pIC50 [5]: 6.35; viability at 1 µM (PGA-1 CLL cell line; CLL cell, read-out: % Viability PGA-1, 1 µM, 24 h): 96.4%; viability at 10 µM (PGA-1 CLL cell line; [11]): 0.97%; pIC50 [6]: 5.85
O=[N+]([O-])/C=C/c1c2ccccc2c(Br)c2ccccc12 [Compound 19h, (E)-9-Bromo-10-(2-Nitrovinyl)Anthracene]	84.8%	70%	51.2%	3.36%	melting point: 227 to 230 °C; viability at 10 µM (PGA-1 CLL cell line; [11]): 36.9%
O=C(c1c2ccccc2cc2ccccc12)N1CCOCC1 [Compound 33e]	86.1%	80.2%	86.9%	85.2%	–
C/C(=C\c1c2ccccc2c(Cl)c2ccccc12)[N+](=O)[O-] [Compound 19e]	82.5%	99.6%	105%	98.6%	viability at 10 µM (HG-3 CLL cell line; CLL cell): 87%; % Viable Cells Remaining MUTU-1 [3]: 98.6%
CC/C(=C\c1c2ccccc2c(Cl)c2ccccc12)[N+](=O)[O-] [Compound 19f, (E)-9-chloro-10-(2-nitrobut-1-en-1-yl)anthracene]	105%	78%	96.6%	97.5%	% Viable Cells Remaining MUTU-1 [3]: 97.5%
O=[N+]([O-])/C=C/c1c2ccccc2c(-c2ccccc2)c2ccccc12 [Compound 19j, (E)-9-(2-Nitrovinyl)-10-Phenylanthracene]	83.5%	1.5%	68.5%	1.29%	–
CC/C(=C\c1ccccc1F)[N+](=O)[O-] [Compound 11d]	–	–	–	–	% Viability HG-3 (HG-3 CLL cell line; 10 µM): 0.66%; viability at 1 µM (HG-3 CLL cell line; CLL cell, read-out: % Viability HG-3, 1 µM, 24 h): 14.5%; % Viability PGA-1 (PGA-1 CLL cell line): 0.02%
c1ccc2c(CN3CCCCCC3)c3ccccc3cc2c1 [Compound 29a]	83.6%	89.3%	103%	99%	–
O=C(c1c2ccccc2cc2ccccc12)N1CCCCC1 [Compound 33f]	72.5%	78.8%	83.1%	84.8%	melting point: 181 to 183 °C; % Viable Cells Remaining MUTU-1 [3]: 84.8%
O=[N+]([O-])C=CCc1c2ccccc2cc2ccccc12 [Compound 20a, 9-(3-Nitroallyl)Anthracene]	99.9%	79 to 97%	106%	–	% Viable Cells Remaining DG-75 [1]: 79.71%; viability at 10 µM (PGA-1 CLL cell line; [11]): > 50%
